Columns and labels:
[1] = tested on: in-vitro BBB model (HBMVEC and astrocytes); experiment: Drug delivery through in-vitro BBB model; type: in vitro ADME, human; conditions: 40 μg/mL in upper chamber, 30 min to Day 2
Method: Primary human brain microvascular endothelial cells (HBMVEC) and astrocytes were obtained from Sciencell Research Laboratories, Carlsbad, Calif. An in-vitro BBB model was established in trans-well plate as per published protocol.^47,48 HBMVECs were inoculated at the upper side of 0.4-μm pore size PTFE membrane tissue culture inserts (Corning, N.Y.) at initial concentration of 10^4 cells/well. A confluent layer of human astrocytes was grown on the lower side of the membrane. After incubation, integrity of the BBB was measured with transendothelial electrical resistance (TEER) using Millicell ERS microelectrodes (Millipore). […] Afterwards, cell media was collected at different time points (30 mins, 1 hr, Day 1, and Day 2) from the lower chamber and the upper chamber was replenished with fresh media. The drug content of the collected medium was measured through HPLC as mentioned above.

[2] = tested on: HIV-1 Ba-L; experiment: Anti-HIV-1 efficacy, p24 ELISA in infected primary human macrophages; type: cell-based; conditions: 40 μg/mL, HIV-1 infected macrophages, supernatant Day 0-7
Method: ND-EFV was investigated for anti-HIV-1 efficacy in primary human macrophage. Human peripheral blood mononuclear cells (PBMCs) were isolated from a healthy subject and differentiated into macrophages as previously published.^45 PBMCs were isolated with Ficoll-Hypaque (Pharmacia) gradient and cells were incubated for differentiation for 7 days in the presence of human macrophage colony stimulating factor (MCSF, Sigma) to macrophages. Following incubation, macrophages were infected with HIV-1 1Ba-L (NIH AIDS research and reference reagent program Cat#510) (100 ng/mL) for 24 hrs. On the next day, cells were washed to get rid of any unattached virus and fresh media was added. At the same time, 40 μg/mL of ND-EFV and unformulated EFV was added to these cells in two different setups. The HIV-1 infected macrophages served as a positive control. The […] treated cells were monitored for up to 10 days along with the infected control cells. The cell supernatant was collected at Day 0, 1, 2, 3, 5, and 7 post-treatment. The viral p24 level in the supernatant was measured with p24 ELISA assay (Cat. #0801200, Zeptometrix, USA). The p24 level at different time points provided the level of viral inhibition caused by ND-EFV and EFV. The p24 level at the culture supernatant will be inversely proportional to therapeutic efficacy of ND-EFV.

[3] = Solubility in water or PBS; type: physicochemical
Description: In some embodiments, the efficacy of the ND-EFV formulation can be further optimized by making a suspension of the formulation in a liquid. Being hydrophobic molecules, both EFV and ND were insoluble in water or phosphate buffer saline (PBS). In certain embodiments, solvents with ratios of PBS to DMSO (dimethyl sulfoxide) ranging from 1:1 to 1:9 were used to make the ND-EFV formulation soluble in physiological buffer media. In an exemplary embodiment, a PBS:DMSO ratio of approximately 1:9 was used for making a ND-EFV suspension, which was subsequently diluted in preparation to perform biological experiments.

EFV drug release on the CNS side (lower chamber) of the BBB model [1]: very robust drug release
solubility in water or phosphate buffer saline (PBS) [3]: insoluble
Structure (SMILES): O=C1Nc2ccc(Cl)cc2[C@@](C#CC2CC2)(C(F)(F)F)O1 [EFV, Efavirenz]
time over which HIV-1 replication (p24 level) was controlled [2]: ≤ 5 days
